One assay deals with T1, TYK2-JH2 domain (Homo sapiens, UniProt P29597).
T1 construct: JAK1-JH2 domain or TYK2-JH2 domain enzyme in assay buffer
Kind of assay: Binding activity test for JH2 domain of TYK2 (Tb-antibody/tracer FRET). To be noted: for IC50: JH2 domain enzyme, 60 min at 25°C, then 4°C overnight, read-out: TYK2 JH2 Binding IC50; for JAK1/TYK2 selectivity: ratio of JAK1 JH2 to TYK2 JH2 binding IC50. The gist of the method:
(§1)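 Competitive TR-FRET binding: compounds dispensed as an 11-point 3-fold dilution series, then Tb-labelled antibody and tracer added to the JH2 protein system. Incubated at 25°C, then overnight at 4°C; FRET signal read on Envision and IC50 (nM) derived.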

Another assay concerns the target T2, JAK1-JH2 domain (Homo sapiens, UniProt P23458).
T2 construct: JAK1-JH2 domain or TYK2-JH2 domain enzyme in assay buffer
Kind of assay: Binding activity test for JH2 domain of JAK1 (Tb-antibody/tracer FRET). To be noted: JH2 domain enzyme; 60 min at 25°C, then 4°C overnight; read-out: JAK1 JH2 Binding IC50. The gist of the method: as §1

Assay [1] has as its system Ba/F3-FL-TYK2-P760L cells. Kind of assay: Anti-proliferative assay in engineered Ba/F3 cells (Cell-Titer Glo, 72 h). The format is cell-based. To be noted: Mus musculus, BaF3, 72 h, 72 h compound treatment, concentration that causes 50% growth inhibition, read-out: Baf3-FL-T2P760L. In short, it runs like this: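 Ba/F3 cells carrying Tel-dimerization/JAK kinase fusion, IL-3-independent, in RPMI-1640 + 10% FBS; 9-point 3-fold dilutions from 20 µM (0.1% DMSO) added after 24 h, 72 h at 37 °C. Viability by Cell-Titer Glo ATP luminescence; % inhibition versus DMSO cells, blank-corrected, giving IC50.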

T1 sequence (P29597 589-875 limits assumed): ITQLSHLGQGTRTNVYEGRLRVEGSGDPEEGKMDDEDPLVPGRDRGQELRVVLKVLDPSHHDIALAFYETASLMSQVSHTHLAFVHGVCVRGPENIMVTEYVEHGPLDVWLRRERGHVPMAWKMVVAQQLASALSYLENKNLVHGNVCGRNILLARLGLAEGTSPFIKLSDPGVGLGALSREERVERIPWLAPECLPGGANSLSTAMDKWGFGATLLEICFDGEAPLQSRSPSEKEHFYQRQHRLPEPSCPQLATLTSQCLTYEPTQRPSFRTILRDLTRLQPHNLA
T2 sequence (P23458 583-855 limits assumed): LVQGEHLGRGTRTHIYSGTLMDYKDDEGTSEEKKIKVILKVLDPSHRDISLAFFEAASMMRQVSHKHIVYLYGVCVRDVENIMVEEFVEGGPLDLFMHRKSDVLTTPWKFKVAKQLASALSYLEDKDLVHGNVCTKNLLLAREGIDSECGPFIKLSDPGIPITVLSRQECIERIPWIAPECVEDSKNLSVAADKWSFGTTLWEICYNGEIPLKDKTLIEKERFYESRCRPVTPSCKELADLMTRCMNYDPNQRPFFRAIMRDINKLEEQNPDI

For the compound `[2H]C([2H])([2H])CC(=O)c1cnc(NC(=O)C2CC2)nc1Nc1cccc(-c2cnn(C)n2)c1OC` [Example 167, N-(4-((2-methoxy-3-(2-methyl-2H-1,2,3-triazol-4-yl)phenyl)amino)-5-(propanoyl-3,3,3-d3)pyrimidin-2-yl)cyclopropanecarboxamide], the IC50 is 0.275 nM on TYK2-JH2 domain, 32 nM at JAK1-JH2 domain and 60.9 nM in assay [1]. Besides, the JAK1/TYK2 selectivity on TYK2-JH2 domain is 116.34.

Take `COc1c(Nc2cc(NC(=O)C3CC3)ncc2C(C)(F)F)cccc1-c1cnn(C)n1` [Example 168, N-(5-(1,1-difluoroethyl)-4-((2-methoxy-3-(2-methyl-2H-1,2,3-triazol-4-yl)phenyl)amino)pyridin-2-yl)cyclopropanecarboxamide]: the IC50 on TYK2-JH2 domain amounted to 0.27 nM; on JAK1-JH2 domain it was 1.03 nM; in assay [1] it was 19.1 nM. For the same compound, the JAK1/TYK2 selectivity at TYK2-JH2 domain is on record as 3.81.

Consider `COC(=O)c1cnc(Nc2ccc(F)cn2)cc1Nc1nn(C)c2ccc([C@H](OC)C(F)(F)F)c(OC)c12` [Example 169, Methyl (S)-6-((5-fluoropyridin-2-yl)amino)-4-((4-methoxy-1-methyl-5-(2,2,2-trifluoro-1-methoxyethyl)-1H-indazol-3-yl)amino)nicotinate], for which the IC50 at TYK2-JH2 domain is 0.19 nM; at JAK1-JH2 domain it was more than 298 nM; in assay [1], 8.33 nM. Moreover, the JAK1/TYK2 selectivity on TYK2-JH2 domain is more than 1571.

Take `[2H]C([2H])([2H])NC(=O)c1cnc(Nc2ccc(F)cn2)cc1Nc1nn(C)c2ccc([C@H](OC)C(F)(F)F)c(OC)c12` [Example 171, (S)-6-((5-fluoropyridin-2-yl)amino)-4-((4-methoxy-1-methyl-5-(2,2,2-trifluoro-1-methoxyethyl)-1H-indazol-3-yl)amino)-N-(methyl-d3)nicotinamide]: the values for the IC50 (at TYK2-JH2 domain; on JAK1-JH2 domain; in assay [1]) were 0.171 nM, 17 nM and 1.03 nM, respectively. For the same compound, the JAK1/TYK2 selectivity on TYK2-JH2 domain is 99.17.

As to `[2H]C([2H])([2H])OCc1ccc2c(c(Nc3cc(NC(=O)C4CC4)ncc3C(F)(F)CC)nn2C)c1OC` [Example 172, N-(5-(1,1-difluoropropyl)-4-((4-methoxy-5-((methoxy-d3)methyl)-1-methyl-1H-indazol-3-yl)amino)pyridin-2-yl)cyclopropanecarboxamide], the IC50 on TYK2-JH2 domain turned out to be 0.79 nM; on JAK1-JH2 domain, 18.2 nM; in assay [1], 21.9 nM. Besides, the JAK1/TYK2 selectivity on TYK2-JH2 domain was found to be 22.99.

Regarding `[2H]C([2H])([2H])NC(=O)c1cnc(Nc2ccc(N3CCOCC3)cn2)cc1Nc1nn(C)c2ccc([C@H](OC)C(F)(F)F)c(OC)c12` [Example 173, (S)-4-((4-methoxy-1-methyl-5-(2,2,2-trifluoro-1-methoxyethyl)-1H-indazol-3-yl)amino)-N-(methyl-d3)-6-((5-morpholinopyridin-2-yl)amino)nicotinamide], the IC50 is 0.161 nM on TYK2-JH2 domain, 2.39 nM at JAK1-JH2 domain and 0.401 nM in assay [1]. Besides, on TYK2-JH2 domain, the JAK1/TYK2 selectivity is listed as 14.83.

Regarding `CCC(F)(F)c1cnc(NC(=O)C2CC2)cc1Nc1nccc(-c2cnn(C)n2)c1OC` [Example 174, N-(5-(1,1-difluoropropyl)-4-((3-methoxy-4-(2-methyl-2H-1,2,3-triazol-4-yl)pyridin-2-yl)amino)pyridin-2-yl)cyclopropanecarboxamide], the IC50 on TYK2-JH2 domain came out at 0.86 nM; at JAK1-JH2 domain it was 61.4 nM; in assay [1] it was 15.4 nM. For the same compound, the JAK1/TYK2 selectivity at TYK2-JH2 domain is listed as 71.45.

In the case of `COC(=O)c1cnc(Nc2ccc(Cl)cn2)cc1Nc1nn(C)c2ccc([C@H](OC)C(F)(F)F)c(OC)c12` [Example 175, Methyl (S)-6-((5-chloropyridin-2-yl)amino)-4-((4-methoxy-1-methyl-5-(2,2,2-trifluoro-1-methoxyethyl)-1H-indazol-3-yl)amino)nicotinate], the IC50 is 0.384 nM on TYK2-JH2 domain, more than 298 nM at JAK1-JH2 domain and 18.1 nM in assay [1]. In addition, the JAK1/TYK2 selectivity at TYK2-JH2 domain is more than 777.34.

For the compound `COC1CN(c2ccc3nc(Nc4cc(NC(=O)C5CC5)ncc4C(C)(F)F)nn3c2)C1` [Example 176, N-(5-(1,1-difluoroethyl)-4-((6-(3-methoxyazetidin-1-yl)-[1,2,4]triazolo[1,5-a]pyridin-2-yl)amino)pyridin-2-yl)cyclopropanecarboxamide], the values for the IC50 (at TYK2-JH2 domain; at JAK1-JH2 domain; in assay [1]) were 0.768 nM, 17.1 nM and 13.3 nM, respectively. Further, the JAK1/TYK2 selectivity on TYK2-JH2 domain is 22.21.

Take `COc1c(-c2cnn(C)n2)ccnc1Nc1cc(NC(=O)C2CC2)ncc1C(C)(F)F` [Example 177, N-(5-(1,1-Difluoroethyl)-4-((3-methoxy-4-(2-methyl-2H-1,2,3-triazol-4-yl)pyridin-2-yl)amino)pyridin-2-yl)cyclopropanecarboxamide]: the figures for the IC50 (on TYK2-JH2 domain; at JAK1-JH2 domain; in assay [1]) were 0.749 nM, 6.37 nM and 15.2 nM, respectively. In addition, the JAK1/TYK2 selectivity on TYK2-JH2 domain was found to be 8.50.

Consider `COC(=O)c1cnc(Nc2ccn(C)n2)cc1Nc1nn(C)c2ccc([C@H](OC)C(F)(F)F)c(OC)c12` [Example 180, Methyl (S)-4-((4-methoxy-1-methyl-5-(2,2,2-trifluoro-1-methoxyethyl)-1H-indazol-3-yl)amino)-6-((1-methyl-1H-pyrazol-3-yl)amino)nicotinate], for which the IC50 is 0.176 nM at TYK2-JH2 domain, more than 298 nM on JAK1-JH2 domain and 14.3 nM in assay [1]. Further, the JAK1/TYK2 selectivity on TYK2-JH2 domain was more than 1696.

Consider `COCCn1ccc(Nc2cc(Nc3nn(C)c4ccc([C@H](OC)C(F)(F)F)c(OC)c34)c(C(=O)OC)cn2)n1` [Example 181, Methyl (S)-4-((4-methoxy-1-methyl-5-(2,2,2-trifluoro-1-methoxyethyl)-1H-indazol-3-yl)amino)-6-((1-(2-methoxyethyl)-1H-pyrazol-3-yl)amino)nicotinate], for which the IC50 is 0.309 nM on TYK2-JH2 domain, more than 298 nM at JAK1-JH2 domain and 35.2 nM in assay [1]. The JAK1/TYK2 selectivity at TYK2-JH2 domain is more than 966.

Consider `[2H]C([2H])([2H])NC(=O)c1cnc(Nc2cc(CN3CCOCC3)n(C)n2)cc1Nc1nn(C)c2ccc([C@H](OC)C(F)(F)F)c(OC)c12` [Example 182, (S)-4-((4-Methoxy-1-methyl-5-(2,2,2-trifluoro-1-methoxyethyl)-1H-indazol-3-yl)amino)-N-(methyl-d3)-6-((1-methyl-5-(morpholinomethyl)-1H-pyrazol-3-yl)amino)nicotinamide], for which the IC50 at TYK2-JH2 domain was found to be 0.141 nM; at JAK1-JH2 domain, 1.97 nM; in assay [1], 0.817 nM. Besides, the JAK1/TYK2 selectivity at TYK2-JH2 domain stood at 13.95.

Turning to `CCC(F)(F)c1cnc(NC(=O)C2CC2)cc1Nc1cccc(-c2cnn(C)n2)c1OC` [Example 184, N-(5-(1,1-Difluoropropyl)-4-((2-methoxy-3-(2-methyl-2H-1,2,3-triazol-4-yl)phenyl)amino)pyridin-2-yl)cyclopropanecarboxamide], the IC50 on TYK2-JH2 domain came out at 0.216 nM; on JAK1-JH2 domain it was 6.85 nM; in assay [1] it was 14.9 nM. Moreover, at TYK2-JH2 domain, the JAK1/TYK2 selectivity was found to be 31.71.

As for `CNC(=O)c1nnc(NC(=O)C2CC2)cc1Nc1nc2ccccn2n1` [Example 185, 4-([1,2,4]Triazolo[1,5-a]pyridin-2-ylamino)-6-(cyclopropanecarboxamido)-N-methylpyridazine-3-carboxamide], the values for the IC50 (on TYK2-JH2 domain; on JAK1-JH2 domain; in assay [1]) were 0.565 nM, 9.21 nM and 89.1 nM, respectively. The JAK1/TYK2 selectivity at TYK2-JH2 domain is 16.30.
